According to patent US6177438A, “Morphinan derivatives and pharmaceutical use thereof” (priority 1993, dated 2001):
Where a name gives a salt, the structure may show the parent alone.

Experiments:
[1] = test system: acetic acid-induced writhing in ddy mice; assay: animal or person; assay type: in vivo, 5 week old ddy mice; conditions: for ED50: Mus musculus, sc, s.c. 15 minutes before acetic acid, read-out: ED50
Method: 5 week old ddy mice were used in this test. After intraperitoneal administration of 0.1 ml of 0.6% aqueous acetic acid per 10 g of body weight, the number of writhing reactions that occurred in 10 minutes starting 10 minutes after administration was evaluated for the indicator. The test drug was administered subcutaneously into the backs of the animals 15 minutes before administration of acetic acid.

[2] = Diuretic action (urine output for 5 hours after physiological saline loading in rats); assay type: in vivo, male Wistar rats; conditions: for ED (200% urine output) / ED (500% urine output): Rattus norvegicus, sc, 5 hours after saline 20 ml/kg p.o.; for ED (200% urine output): dose giving urine output of 200 (non-dosed group = 100); for ED (500% urine output): dose giving urine output of 500 (non-dosed group = 100)
Method: 7-8 week old male Wistar rats were used in this test after prohibiting from drinking water for 1 hour before the start of testing. After discharging any urine accumulated in the bladder by gently stimulating the lower abdomens of the animals, the drug was administered subcutaneously. After 30 minutes, the animals were then forcibly given 20 ml/kg of physiological saline orally. The animals were placed in metabolic cages immediately after administration of the drug (2 animals/cage) and urine output for 5 hours after loading with physiological saline was measured. Drug efficacy was expressed in the form of those doses resulting in urine outputs of 200 and 500, respectively, when the urine output of a non-dosed group was taken to be 100. Those doses were expressed as the ED200 and ED500 values, respectively.

[3] = test system: extracted mouse vas deferens preparation; assay: Opioid activity test using an extracted mouse vas deferens preparation (suppression of electrically induced contractions); set-up: species or system male ddy mouse; conditions: electrical stimulus 0.1 Hz, 37° C.
Method: (§1) A male ddy mouse was used in this test. The vas deferens extracted from the animal was suspended in a Magnus tube filled with Krebes-Henseleit solution (NaCl 118 mM; KCl 4.7 mM; CaCl2 2.5 mM; KH2 PO4 1.1 mM; NaHCO3 25 mM; Glucose 11 mM) warmed to 37° C. and ventilated with 5% carbon dioxide and 95% oxygen. Electrical stimulus was performed at 0.1 Hz for 5.0 ms by means of ring-shaped platinum electrodes located above and below. Tissue contractions were recorded on a polygraph using an isometric transducer.
(§2) After adequately washing with nutrient solution and the contraction reaction stabilized, the μ agonist, naloxone, the δ agonist, NTI, or the κ agonist, norBNI, was added after which the test compound was again cumulatively added after roughly 20 minutes. The Ke value was calculated using the following calculation formula from the difference in the efficacies of both agonists.

κ receptor = biological target: T1, κ receptor (Mus musculus, UniProt P33534); assay: Opioid activity test using an extracted mouse vas deferens preparation, Ke with norBNI; set-up: species or system male ddy mouse; conditions: for receptor selectivity of agonist (κ): in words; for Ke, norBNI: κ, norBNI added
T1 construct: from tissue; host or cells: mouse (male ddy) vas deferens
Method: as §1, §2
Ke=[Conc. of added agonist]/(IC50 ratio-1)
IC50 ratio=IC50 in the presence of agonist/IC50 in the absence of agonist

T1 sequence (P33534 whole entry): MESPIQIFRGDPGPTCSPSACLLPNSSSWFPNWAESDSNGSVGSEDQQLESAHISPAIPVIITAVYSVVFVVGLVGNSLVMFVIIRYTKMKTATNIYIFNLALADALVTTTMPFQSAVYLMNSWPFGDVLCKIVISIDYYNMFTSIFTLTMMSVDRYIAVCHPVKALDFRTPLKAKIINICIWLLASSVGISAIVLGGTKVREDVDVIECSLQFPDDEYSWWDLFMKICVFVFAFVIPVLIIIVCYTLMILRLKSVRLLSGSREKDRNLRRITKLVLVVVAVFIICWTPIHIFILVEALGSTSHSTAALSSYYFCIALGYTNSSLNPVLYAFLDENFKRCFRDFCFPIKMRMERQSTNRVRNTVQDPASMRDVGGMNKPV

Row | Compound | ED50 [1] | ED (200% urine output) [2] | ED (500% urine output) [2] | analgesic activity ([1]; s.c., in words) | Diuretic action (in words) ([2]; s.c., from ED200 values) | IC50 [3] | receptor selectivity of agonist (κ) (κ receptor) | Ke, norBNI (κ receptor)
1 | CN(C(=O)Cc1ccc(F)c(F)c1)[C@H]1CC[C@@]2(O)[C@H]3Cc4ccc(O)c5c4[C@@]2(CCN3CC2CC2)[C@H]1O5 [Compound 105, 17-cyclopropylmethyl-3,14β-dihydroxy-4,5α-epoxy-6α-(N-methyl-3,4-difluorophenylacetamido)morphinan.cndot.hydrochloride] | 0.098 mg/kg | 0.019 mg/kg | 3.3 mg/kg |  |  |  |  | 
2 | CN(C(=O)/C=C/C1CCCCC1)[C@H]1CC[C@@]2(O)[C@H]3Cc4ccc(O)c5c4[C@@]2(CCN3CC2CC2)[C@H]1O5 [Compound 50, 17-cyclopropylmethyl-4,5α-epoxy-3,14β-dihydroxy-6α-(N-methyl-trans-3-cyclohexylacrylamido)morphinan.cndot.hydrochloride] | 0.011 mg/kg | 0.0021 mg/kg | 0.0325 mg/kg |  |  |  |  | 
3 | C/C=C/C=C/C(=O)N(C)[C@@H]1CC[C@@]2(O)[C@H]3Cc4ccc(O)c5c4[C@@]2(CCN3CC2CC2)[C@H]1O5 [Compound 178, 17-cyclopropylmethyl-3,14β-dihydroxy-4,5α-epoxy-6β-(N-methyl-trans,trans-2,4-hexadienoylamido)morphinan tartrate] | 0.0016 mg/kg | 0.00094 mg/kg | 0.0045 mg/kg | particularly strong analgesic activity | extremely strong diuretic action |  |  | 
4 | CN(C(=O)Cc1ccc(Br)cc1)[C@H]1CC[C@@]2(O)[C@H]3Cc4ccc(O)c5c4[C@@]2(CCN3CC2CC2)[C@H]1O5 [Compound 28, 17-cyclopropylmethyl-3,14β-dihydroxy-4,5α-epoxy-6α-(N-methyl-4-bromophenylacetamido)morphinan.cndot.hydrobromide] | 0.071 mg/kg | 0.02 mg/kg | 3.8 mg/kg |  |  |  |  | 
5 | CN(C(=O)CSc1ccccc1)[C@@H]1CC[C@@]2(O)[C@H]3Cc4ccc(O)c5c4[C@@]2(CCN3CC2CC2)[C@H]1O5 [Compound 65, 17-cyclopropylmethyl-3,14β-dihydroxy-4,5α-epoxy-6β-(N-methylthiophenoxyacetamido)morphinan.cndot.tartrate] | 0.15 mg/kg | 0.119 mg/kg | 5.31 mg/kg |  |  |  |  | 
6 | COc1cccc(C#CC(=O)N(C)[C@H]2CC[C@@]3(O)[C@H]4Cc5ccc(O)c6c5[C@@]3(CCN4CC3CC3)[C@H]2O6)c1.O=C(O)C(O)C(O)C(=O)O [Compound 184, 17-cyclopropylmethyl-3,14β-dihydroxy-4,5α-epoxy-6α-[N-methyl-3-(3-methoxyphenyl)propiolamido]morphinan tartrate] | 0.0043 mg/kg | 0.00444 mg/kg | 0.0326 mg/kg |  |  |  |  | 
7 | CN(C(=O)Cc1cccc([N+](=O)[O-])c1)[C@H]1CC[C@@]2(O)[C@H]3Cc4ccc(O)c5c4[C@@]2(CCN3CC2CC2)[C@H]1O5 [Compound 83, 17-Cyclopropylmethyl-3,14β-dihydroxy-4,5α-epoxy-6α-(N-methyl-3-nitrophenylacetamido)morphinan.cndot.hydrochloride] | 0.008 mg/kg | 0.0261 mg/kg | 2.99 mg/kg |  |  |  |  | 
8 | CN(C(=O)/C=C/c1ccco1)[C@@H]1CC[C@@]2(O)[C@H]3Cc4ccc(O)c5c4[C@@]2(CCN3CC2CC2)[C@H]1O5 [Compound 70, 17-cyclopropylmethyl-3,14β-dihydroxy-4,5α-epoxy-6β-[N-methyl-trans-3-(2-furyl)acrylamido]morphinan.cndot.hydrochloride] | 0.0016 mg/kg |  |  |  |  | 0.545 nM | selective agonists for κ receptors | 0.198 nM
9 | CCC/C=C/C(=O)N(C)[C@H]1CC[C@@]2(O)[C@H]3Cc4ccc(O)c5c4[C@@]2(CCN3CC2CC2)[C@H]1O5 [Compound 95, 17-cyclopropylmethyl-3,14β-dihydroxy-4,5α-epoxy-6α-(N-methyl-trans-2-hexenamido)morphinan.cndot.tartrate] | 0.0081 mg/kg | 0.0028 mg/kg | 0.0968 mg/kg |  |  |  |  | 
10 | CN(C(=O)c1ccc(Cl)c(Cl)c1)[C@H]1CC[C@@]2(O)[C@H]3Cc4ccc(O)c5c4[C@@]2(CCN3CC2CC2)[C@H]1O5 [Compound 27, 17-cyclopropylmethyl-3,14β-dihydroxy-4,5α-epoxy-6α-(N-methyl-3,4-dichlorobenzamido)morphinan.cndot.hydrochloride] | 0.046 mg/kg | 0.0248 mg/kg | 2.08 mg/kg |  |  |  |  | 
11 | CN(C(=O)Cc1csc2ccccc12)[C@H]1CC[C@@]2(O)[C@H]3Cc4ccc(O)c5c4[C@@]2(CCN3CC2CC2)[C@H]1O5 [Compound 107, 17-cyclopropylmethyl-3,14β-dihydroxy-4,5α-epoxy-6α-(N-methyl-3-benzo[b]thienylacetamido)morphinan.cndot.hydrochloride] | 0.023 mg/kg | 0.0061 mg/kg | 0.2 mg/kg |  |  |  |  | 
12 | CN(C(=O)Cc1cccc(F)c1)[C@H]1CC[C@@]2(O)[C@H]3Cc4ccc(O)c5c4[C@@]2(CCN3CC2CC2)[C@H]1O5 [Compound 37, 17-cyclopropylmethyl-3,14β-dihydroxy-4,5α-epoxy-6α-(N-methyl-3-fluorophenylacetamido)morphinan.cndot.hydrochloride] | 0.0041 mg/kg | 0.365 mg/kg |  |  |  |  |  | 
13 | CCCCCCC(=O)N(C)[C@H]1CC[C@@]2(O)[C@H]3Cc4ccc(O)c5c4[C@@]2(CCN3CC2CC2)[C@H]1O5 [Compound 46, 17-cyclopropylmethyl-3,14β-dihydroxy-4,5α-epoxy-6α-(N-methylheptanamido)morphinan.cndot.hydrochloride] | 0.013 mg/kg |  |  |  |  | 1.05 nM | selective agonists for κ receptors | 0.440 nM
14 | CN(C(=O)/C=C/c1ccc(Br)cc1)[C@@H]1CC[C@@]2(O)[C@H]3Cc4ccc(O)c5c4[C@@]2(CCN3CC2CC2)[C@H]1O5 [Compound 156, 17-cyclopropylmethyl-3,14β-dihydroxy-4,5α-epoxy-6β-(N-methyl-4-bromocinnamamido)morphinan hydrobromide] | 0.0056 mg/kg | 0.00545 mg/kg | 0.355 mg/kg |  |  |  | selective agonists for κ receptors | 0.091 nM
15 | CN(C(=O)/C=C/c1ccc(Cl)c(Cl)c1)[C@H]1CC[C@@]2(O)[C@H]3Cc4ccc(O)c5c4[C@@]2(CCN3CC2CC2)[C@H]1O5 [Compound 86, 17-cyclopropylmethyl-3,14β-dihydroxy-4,5α-epoxy-6α-(N-methyl-3,4-dichlorocinnamamido)morphinan.cndot.hydrochloride] | 0.0347 mg/kg | 0.0057 mg/kg | 0.229 mg/kg |  |  |  |  | 
16 | CCCCN1CC[C@]23c4c5ccc(O)c4O[C@H]2[C@H](N(C)C(=O)/C=C/c2ccoc2)CC[C@@]3(O)[C@H]1C5.O=C(O)C(O)C(O)C(=O)O (relative stereo) [Compound 163, 17-butyl-3,14β-dihydroxy-4,5α-epoxy-6β-[N-methyl-trans-3-(3-furyl)acrylamido]morphinan tartrate] | 0.37 mg/kg |  |  |  |  |  |  | 
17 | CC(=O)O[C@@]12CC[C@@H](N(C)C(=O)/C=C/c3ccccc3)[C@@H]3Oc4c(O)ccc5c4[C@@]31CCN(CC1CC1)[C@@H]2C5 [Compound 144, 17-Cyclopropylmethyl-3-hydroxy-14β-acetoxy-4,5α-epoxy-6β-(N-methylcinnamamido)morphinan.cndot.tartrate] | 0.024 mg/kg |  |  |  |  |  |  | 
